Measured values from ChEMBL document CHEMBL1201862, “PubChem BioAssay data set” (2004).
The source made the active and inactive calls.

How the values were obtained:
Leucine aminopeptidase = target: T1, Leucine aminopeptidase (Plasmodium falciparum 3D7, UniProt Q8IL11); experiment: P. falciparum M17LAP inhibitors, primary screen, biochemical, fluorogenic H-Leu-NHMec substrate, 1536-well (AID 1619); format: functional
T1 sequence (Q8IL11 whole entry): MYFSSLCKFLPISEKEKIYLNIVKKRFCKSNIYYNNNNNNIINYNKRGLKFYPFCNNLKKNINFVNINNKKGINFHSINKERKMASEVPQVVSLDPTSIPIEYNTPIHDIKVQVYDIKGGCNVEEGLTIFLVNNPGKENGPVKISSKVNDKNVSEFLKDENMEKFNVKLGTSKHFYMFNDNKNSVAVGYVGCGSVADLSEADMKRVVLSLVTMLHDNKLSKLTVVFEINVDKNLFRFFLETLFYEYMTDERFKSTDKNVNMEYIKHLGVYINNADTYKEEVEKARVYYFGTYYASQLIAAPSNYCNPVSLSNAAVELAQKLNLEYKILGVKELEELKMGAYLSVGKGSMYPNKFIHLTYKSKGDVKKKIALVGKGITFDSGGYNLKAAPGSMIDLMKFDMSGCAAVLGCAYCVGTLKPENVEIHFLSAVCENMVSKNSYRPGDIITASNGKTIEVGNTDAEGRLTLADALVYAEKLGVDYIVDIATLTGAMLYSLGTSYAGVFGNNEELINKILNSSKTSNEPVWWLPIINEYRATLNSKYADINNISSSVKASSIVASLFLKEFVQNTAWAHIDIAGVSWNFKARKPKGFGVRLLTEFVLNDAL

[1] = microbe, parasite or virus in culture; format: functional; details: Mycobacterium tuberculosis
[2] = target: T2, Heat shock factor protein 1 (Mus musculus, UniProt P38532); experiment: HSF1 potentiators in luciferase reporter cells, confirmation, cell-based, NIH3T3, luminescence, dose retest (AID 435004); format: functional;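 further: stress induced by proteasome inhibitor MG132 added 30 min after compound; luciferase reporter driven by HSF1 response element in NIH3T3 cells; actives raise luminescence as potentiators of the MG132 stress response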
T2 sequence (P38532 whole entry): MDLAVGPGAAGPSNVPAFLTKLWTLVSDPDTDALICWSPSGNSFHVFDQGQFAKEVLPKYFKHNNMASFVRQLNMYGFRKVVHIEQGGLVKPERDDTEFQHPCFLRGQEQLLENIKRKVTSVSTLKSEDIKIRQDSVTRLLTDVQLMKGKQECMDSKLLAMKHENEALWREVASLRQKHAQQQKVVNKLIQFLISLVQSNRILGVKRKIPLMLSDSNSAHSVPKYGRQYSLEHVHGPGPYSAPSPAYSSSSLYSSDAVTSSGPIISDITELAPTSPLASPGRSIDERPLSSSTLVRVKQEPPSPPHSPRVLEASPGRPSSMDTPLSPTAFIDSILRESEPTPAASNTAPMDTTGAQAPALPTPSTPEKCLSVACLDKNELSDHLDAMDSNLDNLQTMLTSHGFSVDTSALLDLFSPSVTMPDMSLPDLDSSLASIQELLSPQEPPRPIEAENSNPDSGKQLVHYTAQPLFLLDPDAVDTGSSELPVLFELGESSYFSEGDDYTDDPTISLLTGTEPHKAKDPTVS

[3] = tested on: Streptococcus sp. 'group A'; experiment: growth inhibition of control SK(-) GAS strain, dose response, counter-screen for streptokinase expression inhibitor project, luminescence, kanamycin, BacTiterGlo, confirmation (AID 1900); format: functional, organism-based
Streptokinase A = target: T3, Streptokinase A (Streptococcus pyogenes serotype M1, UniProt P10520); experiment: S. pyogenes streptokinase expression inhibitors, potency, dose response, plasminogen activation absorbance, OD405 (AID 1914); format: functional, Streptococcus pyogenes M1 GAS;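 further: secreted streptokinase activity via plasminogen activation per viability signal from cell pellet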
T3 sequence (P10520 whole entry): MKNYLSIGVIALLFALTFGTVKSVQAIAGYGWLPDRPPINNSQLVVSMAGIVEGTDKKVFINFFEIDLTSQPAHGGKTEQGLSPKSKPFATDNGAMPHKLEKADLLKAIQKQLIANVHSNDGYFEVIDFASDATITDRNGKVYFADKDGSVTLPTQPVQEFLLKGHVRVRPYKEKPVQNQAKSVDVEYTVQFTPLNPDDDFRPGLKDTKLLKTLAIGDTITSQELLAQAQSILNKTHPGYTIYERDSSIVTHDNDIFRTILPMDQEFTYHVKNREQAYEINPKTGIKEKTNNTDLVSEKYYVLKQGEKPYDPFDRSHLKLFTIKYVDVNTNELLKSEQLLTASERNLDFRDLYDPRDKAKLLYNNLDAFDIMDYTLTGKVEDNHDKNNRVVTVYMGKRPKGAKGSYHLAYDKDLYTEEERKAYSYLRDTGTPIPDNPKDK

Streptococcus = experiment: Group A Streptococcus viability loss, dose response, counter-screen for streptokinase expression inhibitor project, luminescence, BacTiterGlo (AID 1915); format: functional, organism-based;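 further: potency for reduction of bacterial viability or growth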
[4] = growth suppression of beta-catenin-knockout colon cells, dose response, cell-based, HCT116, human colon tumor (AID 1045); format: functional;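 further: HCT116 colon tumor cells with beta catenin knocked out; cells exposed to compound for 60 hours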
[5] = cytotoxicity toward NIH3T3 fibroblasts, dose response, counter-screen, cell-based, ATP luminescence, mouse fibroblasts (AID 2010); format: functional;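 further: cells exposed to compound for about 90 hours before reading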
[6] = inhibitors of intracellular T. cruzi replication, confirmation, NIH3T3 host cells, beta-gal luminescence (AID 2044); format: functional, cell-based;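 further: intracellular parasites grown in NIH/3T3 mouse fibroblasts as host cells; luminescent beta-galactosidase reporter signal from transgenic T. cruzi replicating inside host cells; inhibitors lower the luminescence signal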
[7] = growth suppression of PTEN-null colon cells, dose response, cell-based, HCT116 PTEN knockout (AID 1047); format: functional;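 further: HCT116 colon tumor cells with PTEN knocked out; cells exposed to compound for 60 hours before readout; potency for loss of cell viability measured by luminescence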
Protein RecA = target: T4, Protein RecA (Mycobacterium tuberculosis, UniProt P9WHJ3); experiment: Fluorescence Cell-Free Homogeneous Dose Retest to Identify Inhibitors of RecA-Intein Splicing Activity. [Related pubchem assays (depositor defined):AID2097, AID2223, AID489010, AID492950]; format: functional
T4 sequence (P9WHJ3 whole entry): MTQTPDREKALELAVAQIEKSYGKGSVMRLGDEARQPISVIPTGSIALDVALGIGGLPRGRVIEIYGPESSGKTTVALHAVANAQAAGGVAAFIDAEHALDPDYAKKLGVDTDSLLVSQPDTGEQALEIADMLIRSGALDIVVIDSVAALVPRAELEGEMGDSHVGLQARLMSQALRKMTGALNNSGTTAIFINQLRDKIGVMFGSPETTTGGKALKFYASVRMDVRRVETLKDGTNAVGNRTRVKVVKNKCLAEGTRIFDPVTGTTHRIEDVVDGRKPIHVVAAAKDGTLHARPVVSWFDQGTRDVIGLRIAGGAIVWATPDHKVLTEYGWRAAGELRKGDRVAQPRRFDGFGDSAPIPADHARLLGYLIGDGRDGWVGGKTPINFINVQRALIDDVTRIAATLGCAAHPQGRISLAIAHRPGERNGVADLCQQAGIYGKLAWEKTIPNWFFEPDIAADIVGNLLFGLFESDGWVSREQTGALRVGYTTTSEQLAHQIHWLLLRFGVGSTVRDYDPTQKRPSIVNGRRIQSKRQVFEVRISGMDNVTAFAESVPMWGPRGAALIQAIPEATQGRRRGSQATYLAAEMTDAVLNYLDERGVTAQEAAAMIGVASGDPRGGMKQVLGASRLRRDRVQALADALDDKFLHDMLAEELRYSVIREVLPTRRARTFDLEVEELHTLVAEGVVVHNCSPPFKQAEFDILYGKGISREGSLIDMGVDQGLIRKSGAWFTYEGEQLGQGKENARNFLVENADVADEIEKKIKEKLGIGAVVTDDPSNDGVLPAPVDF

[8] = target: T5, Replicative DNA helicase DnaB (Mycobacterium tuberculosis, UniProt P9WMR3); experiment: DnaB intein splicing inhibitors, dose response, biochemical, cell-free fluorescence (AID 449749); format: functional
T5 sequence (P9WMR3 whole entry): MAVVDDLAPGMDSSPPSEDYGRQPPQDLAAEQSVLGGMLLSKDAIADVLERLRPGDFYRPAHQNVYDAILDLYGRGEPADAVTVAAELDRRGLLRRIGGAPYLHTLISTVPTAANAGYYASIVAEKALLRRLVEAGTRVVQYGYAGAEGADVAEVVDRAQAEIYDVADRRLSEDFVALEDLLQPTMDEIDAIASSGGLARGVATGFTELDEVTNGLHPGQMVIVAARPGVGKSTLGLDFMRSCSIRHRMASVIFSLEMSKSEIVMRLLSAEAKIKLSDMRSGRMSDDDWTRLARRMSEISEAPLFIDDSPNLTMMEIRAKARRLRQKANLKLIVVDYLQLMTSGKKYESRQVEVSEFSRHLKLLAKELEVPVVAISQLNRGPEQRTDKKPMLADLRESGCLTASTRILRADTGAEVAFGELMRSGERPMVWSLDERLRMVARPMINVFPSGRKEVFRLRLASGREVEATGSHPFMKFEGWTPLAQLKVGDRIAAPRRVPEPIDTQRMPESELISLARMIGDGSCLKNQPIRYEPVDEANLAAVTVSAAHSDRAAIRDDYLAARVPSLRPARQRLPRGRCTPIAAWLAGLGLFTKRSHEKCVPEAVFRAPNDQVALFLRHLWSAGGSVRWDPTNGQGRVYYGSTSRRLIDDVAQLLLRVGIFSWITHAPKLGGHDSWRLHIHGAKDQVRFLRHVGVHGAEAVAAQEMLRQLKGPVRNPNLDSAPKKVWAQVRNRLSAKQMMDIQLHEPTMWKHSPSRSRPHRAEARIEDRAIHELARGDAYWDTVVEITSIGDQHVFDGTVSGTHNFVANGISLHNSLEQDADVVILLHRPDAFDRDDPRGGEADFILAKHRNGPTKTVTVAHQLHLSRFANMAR

cells = format: functional
Cytochrome P450 2D6 = Cytochrome P450 2D6 (Homo sapiens, UniProt P10635);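 further: CYP2D6 member of a cytochrome P450 panel assay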
Chain of Cytochrome P450 2D6 (P10635 whole entry): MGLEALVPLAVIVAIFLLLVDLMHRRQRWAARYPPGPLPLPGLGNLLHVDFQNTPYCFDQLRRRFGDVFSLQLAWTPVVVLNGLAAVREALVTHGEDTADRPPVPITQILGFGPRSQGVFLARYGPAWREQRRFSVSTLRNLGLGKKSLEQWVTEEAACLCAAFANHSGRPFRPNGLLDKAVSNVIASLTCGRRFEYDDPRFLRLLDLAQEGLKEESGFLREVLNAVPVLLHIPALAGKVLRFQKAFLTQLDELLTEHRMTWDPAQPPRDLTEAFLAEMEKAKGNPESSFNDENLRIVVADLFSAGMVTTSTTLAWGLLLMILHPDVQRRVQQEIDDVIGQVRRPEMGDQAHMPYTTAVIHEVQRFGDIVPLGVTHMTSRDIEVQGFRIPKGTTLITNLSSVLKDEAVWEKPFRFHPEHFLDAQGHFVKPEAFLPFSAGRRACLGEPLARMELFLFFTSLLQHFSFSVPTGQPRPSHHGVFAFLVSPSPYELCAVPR

S=C1NC(c2ccccc2)N2C(=S)NC(c3ccccc3)N12 (stereo not drawn)
IC50 (Leucine aminopeptidase): 20.9 µM (active)

Cc1cc(N/N=C2/CCCc3ccccc32)nc2ccccc12
CC50 [1]: > 40 µM (active)

Cc1cccc(N(CC(=O)Nc2ccccc2-c2ccccc2)S(=O)(=O)c2ccccc2)c1C
EC50 [2]: > 260 µM (inactive)

O=C(N/N=C/c1ccc(Br)s1)c1cccs1
CC50 [1]: 33.3 µM (active)

COc1cccc(/C=N/NC(=O)CC2C(=O)NN=C2C)c1OC (stereo not drawn)
IC50 (Leucine aminopeptidase): 23.5 µM (active)

COc1ccc(NC(=O)CSc2nnc(NC(=O)c3ccccc3C(=O)O)s2)cc1
IC50 (Leucine aminopeptidase): 6.27 µM (active)

Cc1nc(CN2CCN(Cc3nc(C(c4ccccc4)c4ccccc4)no3)CC2)cs1
EC50 [2]: > 260 µM (inactive)

COc1cccc(/C=N/NC(=S)NC2CC3CC2C2C=CCC32)c1O (stereo not drawn)
EC50 [2]: > 260 µM (inactive)

Cc1nn(-c2ccccc2)c(C)c1/C=N/NC(=O)c1cc(-c2cccc3ccccc23)[nH]n1
CC50 [1]: 30.5 µM (active) | EC50 [3]: 18.6 µM (active) | EC50 (Streptokinase A): > 150 µM (not active) | EC50 (Streptococcus): 89.4 µM (active)

Fc1ccc(CN2CCN(c3ncnc4scc(-c5ccccc5)c34)CC2)cc1
EC50 [2]: > 260 µM (inactive)

CCOc1ccc(C(=O)N2CCN(S(=O)(=O)c3cccs3)CC2)c(OCC)c1
EC50 [2]: > 260 µM (inactive)

CCOC(=O)N1CCC(NC(=O)c2cccs2)CC1
EC50 [2]: > 260 µM (inactive)

O=C(N/N=C/c1ccc([N+](=O)[O-])o1)c1cc(-c2cccc(Br)c2)nc2ccccc12
EC50 [4]: 7.86 µM (active) | EC50 [5]: > 60 µM (not active) | EC50 [6]: 0.128 µM (active) | EC50 [3]: 0.398 µM (active) | EC50 (Streptococcus): 0.796 µM (active) | EC50 [7]: 7.92 µM (active)

Cc1cc(C)cc(OCC(O)CN2C(=O)NC(C)(C)C2=O)c1 (stereo not drawn)
EC50 [2]: > 260 µM (inactive)

COc1ccc(NC(=O)Nc2ccc3oc(C)nc3c2)cc1
IC50 (Leucine aminopeptidase): 14.8 µM (active)

O=C(N/N=C/c1ccc(F)c(F)c1)c1cc2c(s1)-c1ccccc1CC2
EC50 [4]: 21.2 µM (active) | EC50 [7]: 22.4 µM (active)

CC(/C=N/NC(=O)Cc1cc(O)[nH]n1)=C\c1ccccc1
IC50 (Leucine aminopeptidase): 72.4 µM (active) | EC50 (Protein RecA): 0.935 µM (active) | AC50 [8]: 2.53 µM (active)

CCOC(=O)c1cnn2cc(-c3[nH]ncc3[N+](=O)[O-])cnc12
IC50 (Leucine aminopeptidase): 5.26 µM (active)

O=C(CNC(=O)c1ccco1)OCc1ccc(C(=O)Oc2ccccc2)cc1
CC50 [1]: > 40 µM (active) | IC50 (cells): 11.7 µM (active)

O=C1CC(SC(=Nc2ccccc2)Nc2ccccc2)C(=O)N1c1cccc(Cl)c1 (stereo not drawn)
EC50 [4]: 33.2 µM (active) | AC50 (Cytochrome P450 2D6): 10 µM (inconclusive) | EC50 [7]: 24.5 µM (active)

CN1C(=O)C(O)(CC(=O)c2ccc(F)cc2)c2cc(Br)ccc21 (stereo not drawn)
EC50 [4]: 15.7 µM (active) | EC50 [7]: 19.1 µM (active)

CCOC(=O)CN1C=C(c2ccc3ccccc3n2)C(C[N+](=O)[O-])c2ccccc21 (stereo not drawn)
EC50 [2]: 70.3 µM (active)

COc1ccccc1C(=O)NNC(=O)C(=O)NCc1ccccc1
CC50 [1]: > 40 µM (active)

COc1cc2c3c(c1OC)C1(C=CC(=O)C=C1)CC3N(C(=O)c1ccccc1)CC2 (stereo not drawn)
EC50 [2]: > 260 µM (inactive)

CCCCn1c(=N)n(CC(O)COc2ccc(C)cc2)c2ccccc21 (stereo not drawn)
EC50 [4]: 6.36 µM (active) | EC50 [7]: 6.43 µM (active)

Cc1ccc(P(=O)(CSC(=N)N)c2ccc(C)cc2)cc1
EC50 [4]: 25.4 µM (active) | EC50 [7]: 30.7 µM (active)
